Experimental findings from ChEMBL document CHEMBL4000233, “Synthesis and evaluation of 5-(1H-indol-3-yl)-N-aryl-1,3,4-oxadiazol-2-amines as Bcl-2 inhibitory anticancer agents” (Bioorg Med Chem Lett, 2017) are described below.

SMILES strings stand for the structures.

One experiment deals with MDA-MB-231. The experiment can be described thus: Cytotoxicity against human MDA-MB-231 cells assessed as growth inhibition after 72 hrs by MTT assay. The conditions noted are these: MDA-MB-231, 72 h. Format: functional, cell-based. (In general: Formazan colour is commonly taken as a measure of viable cells.)
A further experiment relates to HeLa. The experiment can be described thus: Cytotoxicity against human HeLa cells assessed as growth inhibition after 72 hrs by MTT assay. Format: functional, cell-based.
The next experiment deals with KG-1a. The experiment can be described thus: Cytotoxicity against human KG1a cells assessed as growth inhibition after 24 hrs by CellTiter Blue assay. The experiment is classed as functional, cell-based. A general note: The colour change of resazurin is a common sign of viable cells or microbes.
A further experiment relates to Jurkat. The experiment in a line: Cytotoxicity against human Jurkat cells assessed as growth inhibition after 24 hrs by CellTiter Blue assay. The experiment is classed as functional, cell-based.
Experiment [1] deals with Apoptosis regulator Bcl-2 (Homo sapiens, UniProt P10415). The experiment in a line: Inhibition of biotinylated Bim peptide binding to His-tagged Bcl-2 (unknown origin) preincubated for 1 hr followed by biotinylated Bim peptide addition measured after 2 hrs by ELISA.
Chain of Apoptosis regulator Bcl-2 (P10415 whole entry): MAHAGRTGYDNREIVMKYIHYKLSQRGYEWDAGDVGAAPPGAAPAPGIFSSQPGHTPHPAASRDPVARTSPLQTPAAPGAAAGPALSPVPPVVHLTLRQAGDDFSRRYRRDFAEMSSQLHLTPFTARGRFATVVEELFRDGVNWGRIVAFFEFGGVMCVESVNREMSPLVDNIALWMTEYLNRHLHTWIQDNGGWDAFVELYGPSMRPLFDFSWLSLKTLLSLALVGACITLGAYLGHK

Turning to `O=[N+]([O-])c1ccccc1Nc1nnc(-c2c[nH]c3ccccc23)o1`, the IC50 (commonly the concentration needed to halve the response being measured) in the experiment with MDA-MB-231 was determined as 0.9 µM; in the experiment with HeLa, 0.3 µM; in the experiment on KG-1a, 0.85 µM; with Jurkat, 30.2 µM; in experiment [1], 1.24 µM.
On to `Clc1cccc(Nc2nnc(-c3c[nH]c4ccccc34)o2)c1`, for which the half-inhibitory concentration (IC50) in the experiment on MDA-MB-231 is 8.89 µM; in the experiment on HeLa, 5.6 µM; with KG-1a, 32.7 µM; with Jurkat, greater than 100 µM; in experiment [1], 0.66 µM.
As for `c1ccc(CNc2nnc(-c3c[nH]c4ccccc34)o2)cc1`, the IC50 in the experiment with MDA-MB-231 is 6.47 µM; in the experiment on HeLa it was 7.81 µM; in the experiment with KG-1a it was greater than 100 µM; in the experiment with Jurkat, greater than 100 µM.
For the molecule `O=[N+]([O-])c1ccc(Nc2nnc(-c3c[nH]c4ccccc34)o2)cc1`, the IC50 in the experiment with MDA-MB-231 is 3.54 µM; in the experiment on HeLa, 1.76 µM; in the experiment with KG-1a it was 0.89 µM; with Jurkat it was 45 µM; in experiment [1], 3.83 µM.
With `O=[N+]([O-])c1cccc(Nc2nnc(-c3c[nH]c4ccccc34)o2)c1`, the IC50 is 34.6 µM with MDA-MB-231, 15.1 µM in the experiment on HeLa, 25.5 µM with KG-1a and greater than 100 µM in the experiment with Jurkat.
With `COc1ccc(Nc2nnc(-c3c[nH]c4ccccc34)o2)cc1`, the IC50 with MDA-MB-231 is 10.1 µM; with HeLa it was 5.82 µM; in the experiment with KG-1a, 0.82 µM; in the experiment on Jurkat it was greater than 100 µM; in experiment [1] it was 29 µM.
In the case of `Clc1ccc(Nc2nnc(-c3c[nH]c4ccccc34)o2)cc1Cl`, the IC50 is 31.1 µM in the experiment with MDA-MB-231, 19.3 µM in the experiment with HeLa, 45.3 µM with KG-1a and greater than 100 µM with Jurkat.
In the case of `Cc1ccc(Nc2nnc(-c3c[nH]c4ccccc34)o2)cc1`, the IC50 was 27.2 µM in the experiment on MDA-MB-231; 15.8 µM in the experiment on HeLa; 4 µM with KG-1a; greater than 100 µM in the experiment on Jurkat; 21.1 µM in experiment [1].
In the case of `Fc1ccc(Nc2nnc(-c3c[nH]c4ccccc34)o2)cc1`, the IC50 is greater than 100 µM in the experiment with MDA-MB-231, greater than 100 µM in the experiment on HeLa, 21.1 µM in the experiment on KG-1a and greater than 100 µM with Jurkat.
In the case of `Clc1ccc(Nc2nnc(-c3c[nH]c4ccccc34)o2)cc1`, the IC50 with MDA-MB-231 was 9.77 µM; in the experiment on HeLa, 3.8 µM; in the experiment on KG-1a, 3.16 µM; in the experiment on Jurkat it was 30.2 µM.
